From patent US11197878B2, “Anti-inflammatory composition including novel quercetin-based compound” (AMOREPACIFIC CORPORATION, priority 2017, dated 2021)

Tests used:
Format in all cases: cell-based
PGE2 (Prostaglandin E2) = assay: Test for inhibiting generation of PGE2 in H2O2-stimulated fibroblast (ELISA); settings: for inhibition at 100 µg/mL: Fibroblast, 100 μg/ml, {1−(test sample−control)/(H2O2−control)}×100, read-out: Inhibition effect according to Equation 1, PGE2; for PGE2: fibroblast culture medium, H2O2 500 μM 24 hours, then test material (31, 32: 100 μg/ml) 48 hours, ELISA
Experimental: (§1) Fibroblast (PromoCell, Germany) was inoculated in a 6-well culturing plate at a concentration of 1×10^5 cells, and cultured in a 5% CO2 incubator at 37° C. for 24 hours. The well was treated with H2O2 500 μM and stimulated for 24 hours, and then were treated with quercetin3-O-[3-O″-(E)-p-coumaroyl][β-D-glucopyranosyl-(1→3)-O-α-L-rhamnopyranosyl-(1→6)-O-β-D-glucopyranoside] (‘New Material 31’) and quercetin3-O-[3-O″-(E)-p-coumaroyl][α-L-rhamnopyranosyl-(1→6)-O-β-D-glucopyranoside]) (‘New Material 32’) at a concentration of 100 μg/ml, respectively, and reacted for 48 hours. After the reaction was finished, the culture medium was collected and the ELISA analysis was performed. Herein, α-bisabolol, which is the material typically used as an anti-inflammatory agent and abirritant, was used as a control. As PGE2, a kit of Assay Design® was used, and as IL-6 and IL-8, a kit of Endogen® was used, and the test was carried out according to the methods prescribed in the manuals of the respective companies. (‘31’ refers to New Material 31, and ‘32’ refers to New Material 32) Inhibition effect={1−(test sample−control)/(H2O2−control)}×100 <Equation 1>

IL-8 (Interleukin 8) = assay: Test for inhibiting generation of IL-8 in H2O2-stimulated fibroblast (ELISA); settings: for inhibition at 100 µg/mL: Fibroblast, 100 μg/ml, {1−(test sample−control)/(H2O2−control)}×100, read-out: Inhibition effect according to Equation 1, IL-8; for IL-8: fibroblast culture medium, H2O2 500 μM 24 hours, then test material (31, 32: 100 μg/ml) 48 hours, ELISA
Experimental: as §1

IL-6 (Interleukin 6) = assay: Test for inhibiting generation of IL-6 in H2O2-stimulated fibroblast (ELISA); settings: for inhibition at 100 µg/mL: Fibroblast, 100 μg/ml, {1−(test sample−control)/(H2O2−control)}×100, read-out: Inhibition effect according to Equation 1, IL-6; for IL-6: fibroblast culture medium, H2O2 500 μM 24 hours, then test material (31, 32: 100 μg/ml) 48 hours, ELISA
Experimental: as §1

Row | SMILES | inhibition at 100 µg/mL (PGE2 (Prostaglandin E2)) [%] | PGE2 (PGE2 (Prostaglandin E2)) [pg/mL] | inhibition at 100 µg/mL (IL-8 (Interleukin 8)) [%] | IL-8 (IL-8 (Interleukin 8)) [pg/mL] | inhibition at 100 µg/mL (IL-6 (Interleukin 6)) [%] | IL-6 (IL-6 (Interleukin 6)) [pg/mL]
1 | C[C@@H]1O[C@@H](OC[C@H]2O[C@@H](Oc3c(-c4ccc(O)c(O)c4)oc4cc(O)cc(O)c4c3=O)[C@H](O)[C@@H](OC(=O)/C=C/c3ccc(O)cc3)[C@@H]2O)[C@H](O)[C@H](O[C@@H]2O[C@H](CO)[C@@H](O)[C@H](O)[C@H]2O)[C@H]1O [New Material 31, quercetin3-O-[3-O″-(E)-p-coumaroyl][β-D-glucopyranosyl-(1→3)-O-α-L-rhamnopyranosyl-(1→6)-O-β-D-glucopyranoside]] | 51.7 | 275 | 61.1 | 235 | 29.2 | 226
2 | C[C@@H]1O[C@@H](OC[C@H]2O[C@@H](Oc3c(-c4ccc(O)c(O)c4)oc4cc(O)cc(O)c4c3=O)[C@H](O)[C@@H](OC(=O)/C=C/c3ccc(O)cc3)[C@@H]2O)[C@H](O)[C@H](O)[C@H]1O [New Material 32, quercetin3-O-[3-O″-(E)-p-coumaroyl][α-L-rhamnopyranosyl-(1→6)-O-β-D-glucopyranoside]] | 48.3 | 280 | 61.1 | 235 | 29.2 | 226
